These results are taken from US10570436B2, “Method of analysing a sample including a microorganism of interest” (Spectromics Limited, priority 2014, dated 2020).

The MIC is the least concentration at which growth counts as inhibited. Lower therefore signals a more susceptible organism.

The subject of assay [1] is E. coli K12. Briefly: Minimum inhibitory concentration (MIC), bioscreen spectrophotometer. Particulars: Escherichia coli, 24 h incubation at 37° C., bioscreen spectrophotometer at 600 nm. The format is cell-based. The source says: A range of different concentrations of antibiotic were used to establish the MIC employing a standardised method^17.
The subject of assay [2] is Staphylococcus aureus (Gram-positive). Kind of assay: Susceptibility/resistance of the selected strain (Table 10). The format is cell-based. As to conditions: Experimental Work 4.
Assay [3] relates to Psuedomonas aeruginosa (Gram-negative). Described as above. As to conditions: Experimental Work 4. The format is cell-based, Pseudomonas aeruginosa.
The test system of assay [4] is Staphylococcus epidermidis (Gram-positive). Described as above. It counts as cell-based. As to conditions: Experimental Work 4.
In assay [5] the test system is S. aureus. Kind of assay: UV-Vis spectroscopy with PC-DFA cluster plot, phenotypic shift after antibiotic exposure vs unexposed control. The format is cell-based, Staphylococcus aureus. The source says:
(§1) A first stage of data analysis involved the use of principal component analysis (PCA). […] Its aim is to simplify spectral data from a high number of variables into a smaller number of indices (each called a “principal component” or “PC”), simultaneously retaining the original data variance by identifying data patterns. This is achieved as each PC becomes a representation of a group of data with a linear relationship, at the same time being completely uncorrelated to the subsequent PC which corresponds to a different data dimension. PCs are arranged in a descending order in terms of the degree of original data variance they represent with the first PC representing the greatest amount of original data variance. Addition of all the PCs thus yields the entire original data variance, with the first 5 PCs nearly always corresponding to almost 95% of that variance^11,20-22.
In a second stage, discriminant function analysis (DFA), a supervised technique, was used. This chemometrics technique forms a model by taking into account the structure of data collected from the experiment, thus having a priori experimental knowledge. Using this knowledge it then discriminates data into groups (bacterial classes of treatment) based on the PCs obtained from the PCA in an attempt to reduce intra-group variance and widen inter-group variance^23.
For each strain, 3 mL of nutrient broth was inoculated with the overnight grown cells to a final OD600nm=0.1, followed by dispensing the samples as 200 μL aliquots in a sterile Corning 96 well plate (5 biological replicates per strain for each condition). All plates were sealed using sterile Breath-Easy sealing membranes to reduce sample evaporation. The plates were incubated at 37° C. with 200 rpm shaking for 150 min.
The plates were transferred to one of two BioTek Synergy HT microplate readers programmed for 30 min shaking with medium speed at 37° C. followed by a full scan (200-999 nm range) of all the samples with 2 nm resolution.
In general, unless otherwise stated, the material and methods for Experimental Work 4 were the same as for Experimental Work 3, except that a single Thermo Biomate 5 UV-Vis spectrometer across spectral range of 300-800 nm was used for data collection in Experimental Work 4.

The subject of assay [6] is P. aeruginosa. The description is as above. As to conditions: after both 10 minutes and 30 minutes. It counts as cell-based, Pseudomonas aeruginosa.
From the text: as §1
(§2) In a second stage, discriminant function analysis (DFA), a supervised technique, was used. This chemometrics technique forms a model by taking into account the structure of data collected from the experiment, thus having a priori experimental knowledge. […]
(§3) The plates were transferred to one of two BioTek Synergy HT microplate readers programmed for 30 min shaking with medium speed at 37° C. followed by a full scan (200-999 nm range) of all the samples with 2 nm resolution. […]

The test system of assay [7] is S. epidermidis. Described as above. It counts as cell-based, Staphylococcus epidermidis. As to conditions: after both 10 minutes and 30 minutes.
From the text: as §1, §2, §3

The structures appear in SMILES notation. Converted amounts (≈) assume the structure as drawn.

Molecule `COc1cc(Cc2cnc(N)nc2N)cc(OC)c1OC` [Trimethoprim] returned a minimal inhibitory concentration (MIC) in assay [1] of 300 µg/mL (≈ 1030 µM). Also, the “Sensitive / Resistant to antibiotic” value in assay [2], in assay [3] and in assay [4] was “Resistant” in each case. Besides, the “shift in the cluster plot (PC-DFA)” value was around 4 units in assay [5] (after 30 minutes exposure), “minimal” in assay [5] (at 10 minutes exposure), around 3 units in assay [6] and around 3 units in assay [7].

In the case of `O=C(O)c1cn(C2CC2)c2cc(N3CCNCC3)c(F)cc2c1=O` [Ciprofloxacin], the “Sensitive / Resistant to antibiotic” value in assay [2], in assay [3] and in assay [4] was “Sensitive” throughout.

In assay [1], `CC1(C)S[C@@H]2[C@H](NC(=O)[C@H](N)c3ccccc3)C(=O)N2[C@H]1C(=O)O` [Ampicillin] returned an MIC of 10 µg/mL (≈ 28.6 µM). In addition, the “Sensitive / Resistant to antibiotic” value in assay [2] was “Sensitive”; in assay [3] it was “Resistant”; in assay [4] it was “Resistant”. In addition, the “shift in the cluster plot (PC-DFA)” value is around 1.5 units in assay [5] (after 30 minutes exposure), “minimal” in assay [5] (at 10 minutes exposure), “minimal” in assay [6] and “minimal” in assay [7].

`NCC[C@H](O)C(=O)N[C@@H]1C[C@H](N)[C@@H](O[C@H]2O[C@H](CN)[C@@H](O)[C@H](O)[C@H]2O)[C@H](O)[C@H]1O[C@H]1O[C@H](CO)[C@@H](O)[C@H](N)[C@H]1O` [Amikacin] registered a minimum inhibitory concentration (MIC) in assay [1] of 10 µg/mL (≈ 17.1 µM).
